Our source for the IC50 values is patent publication US6977259B2, “Quinoline derivatives and their use as aurora 2 kinase inhibitors” (AstraZeneca AB, priority 2000, dated 2005).

One assay deals with T1, aurora2 kinase (Homo sapiens, UniProt O14965).
T1 construct: made in house; host or cells: Spodoptera frugiperda Sf21 insect cells (baculovirus, pFastBac HTc)
T1 sequence (O14965 1-403): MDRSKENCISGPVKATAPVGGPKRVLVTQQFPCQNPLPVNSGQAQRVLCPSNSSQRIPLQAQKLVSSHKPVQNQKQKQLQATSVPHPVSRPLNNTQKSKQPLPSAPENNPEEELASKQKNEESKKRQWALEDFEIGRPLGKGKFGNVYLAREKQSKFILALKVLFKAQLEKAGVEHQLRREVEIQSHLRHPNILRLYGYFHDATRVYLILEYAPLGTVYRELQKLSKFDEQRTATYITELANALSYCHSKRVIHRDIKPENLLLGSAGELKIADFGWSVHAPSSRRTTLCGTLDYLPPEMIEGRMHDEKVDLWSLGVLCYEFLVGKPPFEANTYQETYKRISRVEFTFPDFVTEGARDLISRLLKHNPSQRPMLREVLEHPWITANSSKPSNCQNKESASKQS
Briefly: In vitro aurora2 kinase inhibition test. In kind it is biochemical.

In assay [1] the test system is MCF-7 cells. Description: In vitro cell proliferation assay 1 (CyQUANT cell density). In kind it is cell-based. Conditions: Homo sapiens, MCF7, 72 h; MCF-7, 3 days with compound, CyQUANT fluorescence; read-out: concentration giving 50% inhibition of cell proliferation. From the text:
(§1) (b) In Vitro Cell Proliferation Assays
(§2) These and other assays can be used to determine the ability of a test compound to inhibit the growth of adherent mammalian cell lines, for example the human tumour cell line MCF7.
MCF-7 (ATCC HTB-22) or other adherent cells were typically seeded at 1×10^3 cells per well (excluding the peripheral wells) in DMEM (Sigma Aldrich) without phenol red, plus 10% foetal calf serum, 1% L-glutamine and 1% penicillin/streptomycin in 96 well tissue culture treated clear plates (Costar). The following day (day 1), the media was removed from a no treatment control plate and the plate stored at −80° C. […] The fluorescence of the wells was then measured using a fluorescence microplate reader (gain 70, 2 reads per well, 1 cycle with excitation 485 nm and emission 530 nm using a CytoFluor plate reader (PerSeptive Biosystems Inc.)). […]

The test system of assay [2] is MCF-7 cells. Description: In vitro cell proliferation assay II (BrdU incorporation). In kind it is cell-based. Conditions: Homo sapiens, MCF7; MCF-7, 48 hours with compound, 2 hour BrdU labelling, ELISA; read-out: concentration giving 50% inhibition of BrdU incorporation.
Source text: as §1, §2
This assay determines the ability of at test compound to inhibit the incorporation of the thymidine analogue, 5′-bromo-2′-deoxy-uridine (BrdU) into cellular DNA. MCF-7 or other adherent cells were typically seeded at 0.8×10^4 cells per well in DMEM (Sigma Aldrich) without phenol red, plus 10% foetal calf serum, 1% L-glutamine and 1% penicillin/streptomycin (50 μl/well) in 96 well tissue culture treated 96 well plates (Costar) and allowed to adhere overnight. […] The optical density of the wells was then determined at 690 nm wavelength using a Titertek Multiscan plate reader. […]

As for `COc1cc2c(Nc3cnc(NC(=O)c4ccccc4)nc3)ccnc2cc1OCCCN1CCOCC1` [Compound 2], the IC50 against aurora2 kinase was determined as 0.0592 µM; in the assay on MCF-7 cells [1] it was 0.456 µM; with MCF-7 cells [2] it was 0.46 µM.
Consider `O=C(Nc1ncc(Nc2ccnc3cc(OCCCN4CCOCC4)ccc23)cn1)c1ccccc1` [Compound 4], for which the results for the IC50 at aurora2 kinase, in the assay with MCF-7 cells [1] and in the assay with MCF-7 cells [2] were 0.0785 µM, 0.185 µM and 0.19 µM, respectively.
